Experimental findings from patent publication US7192746B2, “α-Isomaltosyltransferase, process for producing the same and use thereof” (Kabushiki Kaisha Hayashibara Seibutsu Kagaku Kenkyujo, priority 2000, dated 2007) are described below.

Holding throughout (test): Specificity to transferring acceptor
Common to all, as to type: biochemical
What all share (design): key: −: no saccharide transferred product was formed; ±: a saccharide-transferred product formed in an amount of less than one percent to the total sugars; +: a saccharide-transferred product was formed in an amount of over one percent but below 10% to the total sugars; ++: a saccharide-transferred product was formed in an amount of over 10% to the total sugars

The subject of assay [1] is α-isomaltosyl-transferring enzyme from Arthrobacter globiformis A19. The following applies: partially purified enzyme, panose as saccharide donor, 10 units/g substrate, 3.2% (w/v), 30° C., pH 6.0, 24 hours. The procedure: (§1) Saccharides were tested as follows to examine whether they can be used as transferring acceptors for the α-isomaltosyl-transferring enzyme of the present invention. A solution of D-glucose, D-xylose, L-xylose, D-galactose, D-fructose, D-mannose, D-arabinose, D-fucose, L-sorbose, L-rhamnose, methyl-α-glucoside (or methyl-α-glucopyranoside), methyl-β-glucoside (or methyl-β-glucopyranoside), N-acetyl-D-glucosamine, D-ribose, L-ribose, D-psicose, sorbitol, xylitol, mannitol, arabitol, ribitol, erythritol, maltose, maltotriose, maltotetraose, maltopentaose, isomaltose, isomaltotriose, α,α-trehalose, α,β-trehalose, kojibiose, nigerose, cellobiose, gentibiose, isopanose, maltitol, maltotriitol, lactose, sucrose, erlose, isomaltosylglucoside, α-cyclodextrin, β-cyclodextrin, γ-cyclodextrin, or L-ascorbic acid was prepared. To each solution was added panose as a saccharide donor to give an equal concentration, admixed with 10 units/g substrate of a purified specimen of either α-isomaltosyl-transferring enzyme from Bacillus globisporus C9 obtained by the method in Experiment 4, Bacillus globisporus C11 obtained by the method in Experiment 7, Bacillus globisporus N75 obtained by the method in Experiment 11, or Arthrobacter ramosus S1 obtained by the method in Experiment 15, or a partially purified specimen of α-isomaltosyl-transferring enzyme from Arthrobacter globiformis A19 obtained by the method in Experiment 18, followed by adjusting the saccharide concentration to 3.2% (w/v). The mixtures thus obtained were enzymatically reacted at 30° C. and Ph 6.0 for 24 hours. The saccharide composition of the resulting reaction mixtures were analyzed on gas chromatography (abbreviated as “GLC” hereinafter) for monosaccharides and disaccharides as testing saccharides, and on HPLC for tri- or higher-saccharides as testing saccharides to confirm whether these saccharides can be used as transferring acceptors for the above enzymes with an index of the positive or negative formation of a saccharide transferred product. In performing GLC, the following apparatuses and conditions were used: GLC apparatus, “GC-16A” commercialized by Shimadzu Corporation, Tokyo, Japan; column, a stainless-steel column, 3 mm in diameter and 2 m in length, packed with 2% “SILICONE OV-17/[…]”, commercialized by GL Sciences Inc., Tokyo, Japan; carrier gas, nitrogen gas at a flow rate of 40 ml/min under temperature conditions of increasing from 160° C. to 320° C. at an increasing temperature rate of 7.5° C./min; and detection, a hydrogen flame ionization detector. In the case of HPLC analysis, the apparatuses and conditions used were: HPLC apparatus, “CCPD” commercialized by Tosoh Corporation, Tokyo, Japan; column, “ODS-AQ-303” commercialized by YMC Co., Ltd., Tokyo, Japan; eluent, water at a flow rate of 0.5 ml/min; and detection, a differential refractometer.

The test system of assay [2] is α-isomaltosyl-transferring enzyme from Arthrobacter ramosus S1. To be noted: panose as saccharide donor, 10 units/g substrate, 3.2% (w/v), 30° C., pH 6.0, 24 hours. The protocol: as §1
Assay [3] relates to α-isomaltosyl-transferring enzyme from Bacillus globisporus C11. To be noted: panose as saccharide donor, 10 units/g substrate, 3.2% (w/v), 30° C., pH 6.0, 24 hours. The protocol: as §1
The subject of assay [4] is α-isomaltosyl-transferring enzyme from Bacillus globisporus C9. The following applies: panose as saccharide donor, 10 units/g substrate, 3.2% (w/v), 30° C., pH 6.0, 24 hours. The procedure:
as §1

In assay [5] the test system is α-isomaltosyl-transferring enzyme from Bacillus globisporus N75. The following applies: panose as saccharide donor, 10 units/g substrate, 3.2% (w/v), 30° C., pH 6.0, 24 hours. The procedure: as §1

The structures appear in SMILES notation.

Turning to `O=C(CO)[C@H](O)[C@H](O)[C@H](O)CO` [D-Psicose, D-psicose], the “Product of transferring reaction, Enzyme of Stain A19” value (shortened to “Product … of Stain A19”) in assay [1] was “± (a saccharide-transferred product formed in an amount of less than one percent to the total sugars)”. The “Product of transferring reaction, Enzyme of Strain S1” value (from here on “Product … of Strain S1”) in assay [2] is “± (a saccharide-transferred product formed in an amount of less than one percent to the total sugars)”. In assay [3], the “Product of transferring reaction, Enzyme of Strain C11” value (“Product … of Strain C11” for short) is given as “−”. In assay [4], the “Product of transferring reaction, Enzyme of Strain C9” value (from here on “Product … of Strain C9”) is recorded as “−”. For the same compound, in assay [5], the “Product of transferring reaction, Enzyme of Strain N75” value (“Product … of Strain N75” for short) was “−”.

Consider `C[C@@H](O)[C@H](O)[C@H](O)[C@@H](O)C=O` [D-Fucose, D-fucose], for which the “Product … of Stain A19” value in assay [1] is “± (a saccharide-transferred product formed in an amount of less than one percent to the total sugars)”. Further, the “Product … of Strain S1” value in assay [2] is given as “+ (a saccharide-transferred product was formed in an amount of over one percent but below 10% to the total sugars)”. Moreover, the “Product … of Strain C11” value in assay [3] is on record as “± (a saccharide-transferred product formed in an amount of less than one percent to the total sugars)”. In assay [4], the “Product … of Strain C9” value is given as “± (a saccharide-transferred product formed in an amount of less than one percent to the total sugars)”. Besides, the “Product … of Strain N75” value in assay [5] is given as “± (a saccharide-transferred product formed in an amount of less than one percent to the total sugars)”.

With `O=C[C@@H](O)[C@H](O)[C@H](O)CO` [D-Arabinose, D-arabinose], in assay [1], the “Product … of Stain A19” value is on record as “± (a saccharide-transferred product formed in an amount of less than one percent to the total sugars)”. Further, the “Product … of Strain S1” value in assay [2] is recorded as “+ (a saccharide-transferred product was formed in an amount of over one percent but below 10% to the total sugars)”. Besides, the “Product … of Strain C11” value in assay [3] is given as “± (a saccharide-transferred product formed in an amount of less than one percent to the total sugars)”. The “Product … of Strain C9” value in assay [4] is “± (a saccharide-transferred product formed in an amount of less than one percent to the total sugars)”. For the same compound, the “Product … of Strain N75” value in assay [5] is listed as “± (a saccharide-transferred product formed in an amount of less than one percent to the total sugars)”.

As to `CO[C@@H]1O[C@H](CO)[C@@H](O)[C@H](O)[C@H]1O` [Methyl-β-glucoside, methyl-β-glucoside], the “Product … of Stain A19” value in assay [1] is “+ (a saccharide-transferred product was formed in an amount of over one percent but below 10% to the total sugars)”. Moreover, the “Product … of Strain S1” value in assay [2] is given as “+ (a saccharide-transferred product was formed in an amount of over one percent but below 10% to the total sugars)”. Further, the “Product … of Strain C11” value in assay [3] is recorded as “++ (a saccharide-transferred product was formed in an amount of over 10% to the total sugars)”. Besides, the “Product … of Strain C9” value in assay [4] is recorded as “++ (a saccharide-transferred product was formed in an amount of over 10% to the total sugars)”. Also, the “Product … of Strain N75” value in assay [5] was “++ (a saccharide-transferred product was formed in an amount of over 10% to the total sugars)”.

With `OC[C@@H](O)[C@H](O)[C@@H](O)CO` [Xylitol, xylitol], the “Product … of Stain A19” value in assay [1] was “± (a saccharide-transferred product formed in an amount of less than one percent to the total sugars)”. Also, the “Product … of Strain S1” value in assay [2] is recorded as “± (a saccharide-transferred product formed in an amount of less than one percent to the total sugars)”. Also, the “Product … of Strain C11” value in assay [3] is given as “−”. The “Product … of Strain C9” value in assay [4] was “−”. In assay [5], the “Product … of Strain N75” value is “−”.

Turning to `O=C1O[C@H]([C@@H](O)CO)C(O)=C1O` [L-Ascorbic acid, L-ascorbic acid], in assay [1], the “Product … of Stain A19” value is “+ (a saccharide-transferred product was formed in an amount of over one percent but below 10% to the total sugars)”. Also, the “Product … of Strain S1” value in assay [2] is on record as “++ (a saccharide-transferred product was formed in an amount of over 10% to the total sugars)”. The “Product … of Strain C11” value in assay [3] is reported as “++ (a saccharide-transferred product was formed in an amount of over 10% to the total sugars)”. Moreover, the “Product … of Strain C9” value in assay [4] is “++ (a saccharide-transferred product was formed in an amount of over 10% to the total sugars)”. Also, the “Product … of Strain N75” value in assay [5] is recorded as “++ (a saccharide-transferred product was formed in an amount of over 10% to the total sugars)”.

Consider `O=C[C@H](O)[C@@H](O)[C@H](O)[C@H](O)CO` [D-Glucose, D-glucose], for which the “Product … of Stain A19” value in assay [1] is reported as “++ (a saccharide-transferred product was formed in an amount of over 10% to the total sugars)”. The “Product … of Strain S1” value in assay [2] is “++ (a saccharide-transferred product was formed in an amount of over 10% to the total sugars)”. Moreover, the “Product … of Strain C11” value in assay [3] is listed as “++ (a saccharide-transferred product was formed in an amount of over 10% to the total sugars)”. Besides, the “Product … of Strain C9” value in assay [4] is reported as “++ (a saccharide-transferred product was formed in an amount of over 10% to the total sugars)”. Also, the “Product … of Strain N75” value in assay [5] was “++ (a saccharide-transferred product was formed in an amount of over 10% to the total sugars)”.

On to `O=C[C@H](O)[C@@H](O)[C@@H](O)[C@H](O)CO` [D-Galactose, D-galactose], for which, in assay [1], the “Product … of Stain A19” value was “± (a saccharide-transferred product formed in an amount of less than one percent to the total sugars)”. The “Product … of Strain S1” value in assay [2] is on record as “+ (a saccharide-transferred product was formed in an amount of over one percent but below 10% to the total sugars)”. The “Product … of Strain C11” value in assay [3] was “−”. In addition, in assay [4], the “Product … of Strain C9” value is reported as “−”. The “Product … of Strain N75” value in assay [5] is recorded as “−”.
